Target: T1, hGH (Homo sapiens, UniProt P01241)
T1 construct: purchased Hospira, Adelaide
Test: Complexation capability of hGH with anionic and cationic agents (non-complexed hGH in supernatant by RPLC)
Assay type: physicochemical
Conditions: for Observation: hGH with complexing agent; for Supernatant Analysis (% of hGH): non-complexed hGH by RPLC
Method: Additional complexation agents were tested in vitro for their ability to precipitate rhGH.
Human growth hormone (purchased from Hospira, Adelaide) was complexed with poly lysine, poly arginine, poly adenylic acid (poly-A), or poly thymine (poly-T) in appropriate ratios (as specified in Table 28) to form suspensions. Supernatant was separated from precipitate (ppt) by centrifugation of the complexed material suspensions. The supernatant solution was analyzed for non-complexed hGH by reverse phase liquid chromatography (RPLC).

T1 sequence (P01241 27-217): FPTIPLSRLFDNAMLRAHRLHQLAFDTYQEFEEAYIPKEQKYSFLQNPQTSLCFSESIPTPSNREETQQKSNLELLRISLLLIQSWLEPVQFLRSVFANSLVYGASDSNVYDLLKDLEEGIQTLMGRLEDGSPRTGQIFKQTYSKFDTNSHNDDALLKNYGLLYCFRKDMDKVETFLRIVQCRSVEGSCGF

| Observation (concentration ratio 1:2) | Supernatant Analysis (% of hGH) (concentration ratio 1:2) | Substance | Observation (concentration ratio 1:10) | Supernatant Analysis (% of hGH) (concentration ratio 1:10) |
| --- | --- | --- | --- | --- |
| No ppt | >90 % of hGH | Hyaluronic Acid | – | – |
| – | – | Poly-Lysine | Cloudy ppt | 9.5 % of hGH |

From patent publication US20170189547A1, “Biodegradable Drug Delivery Composition” (Durect Corporation, priority 2010, published 2017)
